Measurements published in US7781393B2, “Methods for inhibiting tumor cell growth” (Dana-Farber Cancer Institute, Inc., priority 2004, dated 2010).

Legend:
Type in all cases: cell-based, human
CD138+ MM cells = test: Flow cytometric analysis of unpurified bone marrow mononuclear cells; details: 500 nM, 72 hours, 20% serum; BM stromal cells not suppressed
BM stromal cells (BMSCs) = test: Viability of bone marrow stromal cells (MTT); details: 500 nM for 72 hrs
Procedure: Primary MM patient samples were freshly isolated from bone marrow aspirates from patients undergoing diagnostic or restaging bone marrow aspirates under an IRB-approved protocol. MM cells were purified using custom-made RosetteSep cocktail of monoclonal antibodies (mAb's) (StemCell Technologies Inc, Vancouver, Canada) for negative selection of CD138^+ MM cells. The CD138^− fraction of the MM cell purification process was cultured in 20% FBS-supplemented media for isolation of the adherent bone marrow stromal cells. Peripheral blood B cells were isolated by ficoll-density centrifugation of peripheral blood samples from MM patients. […] […] At the end of each treatment, cells were incubated with 1 mg/ml MTT for 4 hours at 37° C.; a mixture of isopropanol and 1N HCl (23:2, v/v) was then added under vigorous pipetting to dissolve the formazan crystals. Dye absorbance (A) in viable cells was measured at 570 nm, with 630 nm as a reference wavelength. Cell survival was estimated as a percentage of the value of untreated controls. All experiments were repeated at least three times, and each experimental condition was repeated at least in quadruplicate wells in each experiment.

MM-1S cells = test: In vitro sensitization of MM-1S cells to anti-cancer drugs; details: ADW-742 750 nM or α-IR3 2 μg/ml for final 24 hours
Procedure: Cells were cultured in the presence of 10% FBS, and results are expressed as mean ±SD of 3 independent experiments.
Cell survival of IGF-1R inhibitor-treated cells was examined using the 3-(4,5-Dimethylthiazol-2-yl)-2,5-Diphenyltetrazolium Bromide (MTT) calorimetric assay. […] At the end of each treatment, cells were incubated with 1 mg/ml MTT for 4 hours at 37° C.; a mixture of isopropanol and 1N HCl (23:2, v/v) was then added under vigorous pipetting to dissolve the formazan crystals. Dye absorbance (A) in viable cells was measured at 570 nm, with 630 nm as a reference wavelength. Cell survival was estimated as a percentage of the value of untreated controls. All experiments were repeated at least three times, and each experimental condition was repeated at least in quadruplicate wells in each experiment.

HIF-1α = HIF-1α DNA binding activity ELISA
Procedure: Flow cytometric analyses for IGF-1R, and IGF-2R were performed as previously described on a EPICS-XL-MCL flow cytometer (Beckman Coulter). Previously described protocols were applied for immunoblotting analyses; TRAP telomerase activity assay; 20S proteasome chymotryptic activity assay; DNA binding activity ELISAs for quantitative assessments of NF-κB and HIF-1a transcriptional activities. VEGF and IGF-1 ELISAs were performed according to manufacturer's instructions (R&D Systems, Minneapolis, Minn.). 20S proteasome chymotryptic activity assay was performed as described [Shringarpure 2003]. The transcriptional activity of DNA binding activity of NF-κB and HIF-1α was measured as previously reported. Libermann T A, et al., . Proc Natl Acad Sci USA; 2002 99: 14374-14379; Mitsiades N. et al., 2002, 99: 4079-4086; Mitsiades N. et al., 2002; Blood 99: 4525-4530 and Mitsiades N., et al 2003 Blood; 101: 2377-2380.

Nc1ncnc2c1c(-c1cccc(OCc3ccccc3)c1)cn2[C@H]1C[C@H](CN2CCCC2)C1 [ADW-742, trans-5-(3-benzyloxy-phenyl)-7-(3-pyrrolidin-1-ylmethyl-cyclobutyl)-7H-pyrrolo[2,3-d]pyrimidin-4-ylamine]
CD138+ population of malignant cells (CD138+ MM cells): significant suppression | viability of BM stromal cells (BM stromal cells (BMSCs)): does not significantly affect | sensitivity of MM-1S cells to dexamethasone (MM-1S cells; dexamethasone 0.1 μM 72 hrs): enhances the sensitivity | sensitivity of MM-1S cells to doxorubicin (MM-1S cells; doxorubicin 50 ng/mL 48 hrs): enhance the sensitivity | sensitivity of MM-1S cells to melphalan (MM-1S cells; melphalan 1 μM 48 hrs): enhance the sensitivity | IGF-1-induced HIF-1α activity (HIF-1α): suppress
